{
  "source": "patent US20120270819A1",
  "about": "“USE OF COMPOUNDS WITH SGLT-1/SGLT-2 INHIBITOR ACTIVITY FOR PRODUCING MEDICAMENTS FOR TREATMENT OF BONE DISEASE” (SANOFI, priority 2009, published 2012)",
  "key": {"[1]": {"tested_on": "female Sprague-Dawley mature and young adult rats", "experiment": "Biomechanical testing: right femur 3-point bending", "assay_type": "in vivo, rat", "conditions": "ex vivo; for Femur 3-point bending AUC / Femur 3-point bending Modulus / Femur 3-point bending Peak Load / Femur 3-point bending Stiffness / Femur 3-point bending Toughness / Femur 3-point bending Ultimate Stress: mean", "description": "(§1) Biomechanical testing was performed using an 858 Mini Bionix Servohydraulic Test System, Model 242.03. All data was collected using TestWorks® version 3.8A for TestStar™ software, version 4.0C.\n(§2) At necropsy, all specimens were cleaned of excess tissue (not scraped) and individually wrapped in gauze soaked with saline, covered with plastic film and placed in an appropriately labelled plastic bag. Bone samples were retained frozen (ca −20° C.) until subjected to the following biomechanical evaluations:\nFor 3-point bending, the right femur was cleaned of soft tissue, especially at the diaphysis in the area of the span.\nThe right femur was tested to failure in three-point bending to determine the material properties of femoral cortical bone. The marked point on the anterior side served as the upper loading point for each femur and the actuator was set at a rate of 1 mm/sec until failure occurred. Load and displacement data were collected. Peak load was determined from the resulting load versus displacement curve and converted to ultimate stress using the radius, cross-sectional moment of inertia and the span. The work to failure was determined from the area under the curve (AUC) and toughness was calculated. Approximate midspan values for stiffness were recorded (defined as the slope of the linear/elastic region of the load versus displacement curve) and modulus was calculated using the moment of inertia obtained from the pQCT data."}, "[2]": {"tested_on": "female Sprague-Dawley mature and young adult rats", "experiment": "Biomechanical testing: L3, L4 vertebral compression", "assay_type": "in vivo, rat", "description": "as §1, §2\nFor compression testing, the vertebral body of the vertebrae was isolated by removing the vertebral arch and removing both inter-vertebral discs. The section obtained had two parallel cut surfaces and the trabecular bone exposed.\nThe L3 and L4 vertebral body were tested in compression to failure. The loading rate was set at 20 mm/min. Load and displacement data were collected and apparent strength and modulus were calculated using the peak load, stiffness, individual vertebral body height and cross sectional area from the pQCT scans. The work to failure was determined from the area under the curve (AUC) and toughness was calculated. Yield load was originally derived using a 0.2% off-set however a 0.1% off-set was considered more appropriate and yield stress was calculated. All data derived from the 0.2% off-set yield load was kept with the study file but not reported."}, "[3]": {"conditions": "L3 + L4 vertebral bodies, mature adults, 10 mg/kg/day"}},
  "data": [
    {"smiles": "COc1ccc(Cc2c(OC3OC(CO)C(F)C(O)C3O)n[nH]c2C(F)(F)F)cc1", "note": "(centres unmarked) [Example 5 of formula II]", "values": [
      {"measurement": "Femur 3-point bending AUC, percent difference from Vehicle Control", "setting": "[1]; Mature Adults, 10 mg/kg/day", "result": 13.4, "unit": "%"},
      {"measurement": "Femur 3-point bending Modulus, percent difference from Vehicle Control", "setting": "[1]; Mature Adults, 10 mg/kg/day", "result": "−0.2", "unit": "%"},
      {"measurement": "Femur 3-point bending Peak Load, percent difference from Vehicle Control", "setting": "[1]; Mature Adults, 10 mg/kg/day", "result": 10.1, "unit": "%"},
      {"measurement": "Femur 3-point bending Stiffness, percent difference from Vehicle Control", "setting": "[1]; Mature Adults, 10 mg/kg/day", "result": 1.3, "unit": "%"},
      {"measurement": "Femur 3-point bending Toughness, percent difference from Vehicle Control", "setting": "[1]; Mature Adults, 10 mg/kg/day", "result": 10.5, "unit": "%"},
      {"measurement": "Femur 3-point bending Ultimate Stress, percent difference from Vehicle Control", "setting": "[1]; Mature Adults, 10 mg/kg/day", "result": 6.1, "unit": "%"},
      {"measurement": "Femur 3-point bending AUC", "setting": "[1]; Mature Adults, 10 mg/kg/day", "result": 64.1, "unit": "N-mm"},
      {"measurement": "Femur 3-point bending Modulus", "setting": "[1]; Mature Adults, 10 mg/kg/day", "result": 6137.7, "unit": "MPa"},
      {"measurement": "Femur 3-point bending Peak Load", "setting": "[1]; Mature Adults, 10 mg/kg/day", "result": 149.8, "unit": "N"},
      {"measurement": "Femur 3-point bending Stiffness", "setting": "[1]; Mature Adults, 10 mg/kg/day", "result": 410.2, "unit": "N/mm"},
      {"measurement": "Femur 3-point bending Toughness", "setting": "[1]; Mature Adults, 10 mg/kg/day", "result": 7.8, "unit": "MPa"},
      {"measurement": "Femur 3-point bending Ultimate Stress", "setting": "[1]; Mature Adults, 10 mg/kg/day", "result": 200.5, "unit": "MPa"},
      {"measurement": "Femur 3-point bending AUC, percent difference from Vehicle Control", "setting": "[1]; Mature Adults, 50 mg/kg/day", "result": 8.7, "unit": "%"},
      {"measurement": "Femur 3-point bending Modulus, percent difference from Vehicle Control", "setting": "[1]; Mature Adults, 50 mg/kg/day", "result": 1.2, "unit": "%"},
      {"measurement": "Femur 3-point bending Peak Load, percent difference from Vehicle Control", "setting": "[1]; Mature Adults, 50 mg/kg/day", "result": 4.5, "unit": "%"},
      {"measurement": "Femur 3-point bending Stiffness, percent difference from Vehicle Control", "setting": "[1]; Mature Adults, 50 mg/kg/day", "result": "−0.9", "unit": "%"},
      {"measurement": "Femur 3-point bending Toughness, percent difference from Vehicle Control", "setting": "[1]; Mature Adults, 50 mg/kg/day", "result": 6.6, "unit": "%"},
      {"measurement": "Femur 3-point bending Ultimate Stress, percent difference from Vehicle Control", "setting": "[1]; Mature Adults, 50 mg/kg/day", "result": 3.4, "unit": "%"},
      {"measurement": "Femur 3-point bending AUC", "setting": "[1]; Mature Adults, 50 mg/kg/day", "result": 61.4, "unit": "N-mm"},
      {"measurement": "Femur 3-point bending Modulus", "setting": "[1]; Mature Adults, 50 mg/kg/day", "result": 6222.5, "unit": "MPa"},
      {"measurement": "Femur 3-point bending Peak Load", "setting": "[1]; Mature Adults, 50 mg/kg/day", "result": 142.1, "unit": "N"},
      {"measurement": "Femur 3-point bending Stiffness", "setting": "[1]; Mature Adults, 50 mg/kg/day", "result": 401.4, "unit": "N/mm"},
      {"measurement": "Femur 3-point bending Toughness", "setting": "[1]; Mature Adults, 50 mg/kg/day", "result": 7.5, "unit": "MPa"},
      {"measurement": "Femur 3-point bending Ultimate Stress", "setting": "[1]; Mature Adults, 50 mg/kg/day", "result": 195.4, "unit": "MPa"},
      {"measurement": "Femur 3-point bending AUC, percent difference from Vehicle Control", "setting": "[1]; Young Adults, 10 mg/kg/day", "result": 4.1, "unit": "%"},
      {"measurement": "Femur 3-point bending Modulus, percent difference from Vehicle Control", "setting": "[1]; Young Adults, 10 mg/kg/day", "result": 2.1, "unit": "%"},
      {"measurement": "Femur 3-point bending Peak Load, percent difference from Vehicle Control", "setting": "[1]; Young Adults, 10 mg/kg/day", "result": 0.9, "unit": "%"},
      {"measurement": "Femur 3-point bending Stiffness, percent difference from Vehicle Control", "setting": "[1]; Young Adults, 10 mg/kg/day", "result": "−0.4", "unit": "%"},
      {"measurement": "Femur 3-point bending Toughness, percent difference from Vehicle Control", "setting": "[1]; Young Adults, 10 mg/kg/day", "result": 2.5, "unit": "%"},
      {"measurement": "Femur 3-point bending Ultimate Stress, percent difference from Vehicle Control", "setting": "[1]; Young Adults, 10 mg/kg/day", "result": 1.3, "unit": "%"},
      {"measurement": "Femur 3-point bending AUC", "setting": "[1]; Young Adults, 10 mg/kg/day", "result": 63.7, "unit": "N-mm"},
      {"measurement": "Femur 3-point bending Modulus", "setting": "[1]; Young Adults, 10 mg/kg/day", "result": 5154.1, "unit": "MPa"},
      {"measurement": "Femur 3-point bending Peak Load", "setting": "[1]; Young Adults, 10 mg/kg/day", "result": 97.9, "unit": "N"},
      {"measurement": "Femur 3-point bending Stiffness", "setting": "[1]; Young Adults, 10 mg/kg/day", "result": 277.3, "unit": "N/mm"},
      {"measurement": "Femur 3-point bending Toughness", "setting": "[1]; Young Adults, 10 mg/kg/day", "result": 8.7, "unit": "MPa"},
      {"measurement": "Femur 3-point bending Ultimate Stress", "setting": "[1]; Young Adults, 10 mg/kg/day", "result": 155.8, "unit": "MPa"},
      {"measurement": "Femur 3-point bending AUC, percent difference from Vehicle Control", "setting": "[1]; Young Adults, 50 mg/kg/day", "result": "−19.9", "unit": "%"},
      {"measurement": "Femur 3-point bending Modulus, percent difference from Vehicle Control", "setting": "[1]; Young Adults, 50 mg/kg/day", "result": 4.0, "unit": "%"},
      {"measurement": "Femur 3-point bending Peak Load, percent difference from Vehicle Control", "setting": "[1]; Young Adults, 50 mg/kg/day", "result": "−3.0", "unit": "%"},
      {"measurement": "Femur 3-point bending Stiffness, percent difference from Vehicle Control", "setting": "[1]; Young Adults, 50 mg/kg/day", "result": 2.0, "unit": "%"},
      {"measurement": "Femur 3-point bending Toughness, percent difference from Vehicle Control", "setting": "[1]; Young Adults, 50 mg/kg/day", "result": "−19.2", "unit": "%"},
      {"measurement": "Femur 3-point bending Ultimate Stress, percent difference from Vehicle Control", "setting": "[1]; Young Adults, 50 mg/kg/day", "result": "−2.3", "unit": "%"},
      {"measurement": "Femur 3-point bending AUC", "setting": "[1]; Young Adults, 50 mg/kg/day", "result": 49.0, "unit": "N-mm"},
      {"measurement": "Femur 3-point bending Modulus", "setting": "[1]; Young Adults, 50 mg/kg/day", "result": 5249.6, "unit": "MPa"},
      {"measurement": "Femur 3-point bending Peak Load", "setting": "[1]; Young Adults, 50 mg/kg/day", "result": 94.1, "unit": "N"},
      {"measurement": "Femur 3-point bending Stiffness", "setting": "[1]; Young Adults, 50 mg/kg/day", "result": 283.9, "unit": "N/mm"},
      {"measurement": "Femur 3-point bending Toughness", "setting": "[1]; Young Adults, 50 mg/kg/day", "result": 6.8, "unit": "MPa"},
      {"measurement": "Femur 3-point bending Ultimate Stress", "setting": "[1]; Young Adults, 50 mg/kg/day", "result": 150.2, "unit": "MPa"},
      {"measurement": "Strength parameters at the lumbar spine", "setting": "[2]; 50 mg/kg/day", "result": "positively affected"},
      {"measurement": "AUC (work to failure), percent difference from Vehicle Control", "setting": "[2]; [3]", "result": 3.5, "unit": "%"},
      {"measurement": "Apparent Strength, percent difference from Vehicle Control", "setting": "[2]; [3]", "result": 3.4, "unit": "%"},
      {"measurement": "Modulus, percent difference from Vehicle Control", "setting": "[2]; [3]", "result": "−2.0", "unit": "%"},
      {"measurement": "Peak Load, percent difference from Vehicle Control", "setting": "[2]; [3]", "result": 6.0, "unit": "%"},
      {"measurement": "Stiffness, percent difference from Vehicle Control", "setting": "[2]; [3]", "result": 0.9, "unit": "%"},
      {"measurement": "Toughness, percent difference from Vehicle Control", "setting": "[2]; [3]", "result": 2.0, "unit": "%"},
      {"measurement": "Yield Load, percent difference from Vehicle Control", "setting": "[2]; [3]", "result": 4.3, "unit": "%"}
    ]}
  ]
}
